Laboratory results reported in article PMC11785675, “Phase Ib study of the oral PI3Kδ inhibitor linperlisib in patients with advanced solid tumors” (International Journal of Clinical Oncology, 2024).

Key:
[1] = system: relapsed or refractory B-cell hematological malignancies; set-up: method as in PMID 34425850; conditions: phase Ia, cited from earlier work
[2] = system: advanced solid tumors; assay: Phase Ib trial of oral linperlisib: efficacy (RECIST 1.1); assay type: in vivo, human; conditions: 80 mg/day oral;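 also: Open-label single-arm multicenter study in China, once-daily dosing over 28-day cycles, response judged by contrast CT or MRI every 8 weeks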
Description: (§1) This phase Ib, single-arm, open-label, multi-center clinical trial recruited patients with advanced or metastatic solid tumors from eight sites in China.
(§2) The main exclusion criteria included prior use of PI3K targeted agents and clinically symptomatic central nervous system metastasis or meningeal metastasis.
(§3) Patients received oral linperlisib 80 mg once per day, taken with warm water either 1 h prior to or 2 h after a meal every day, in a 28-day cycle. Dose adjustments, including holds and reductions, were mandated for grade 3/4 hematologic and grade 3 non-hematologic toxicity. Treatment with linperlisib continued until disease progression, intolerable toxicity, withdrawal of informed consent, death or any other conditions deemed by the investigator to warrant drug discontinuation.
(§4) Physical examination, assessment of ECOG performance status, clinical laboratory evaluations, electrocardiogram, and other safety evaluations were conducted to assess safety. AEs were graded according to the National Cancer Institute Common Terminology Criteria for Adverse Events (CTCAE), Version 5.0. All AEs were recorded from the time of signing the informed consent to at least 30 days after the last dose, and were followed until resolution or stabilization. Patients underwent radiographic assessments every 8 weeks by enhanced computed tomography or magnetic resonance imaging according to RECIST 1.1.
(§5) The primary endpoint was safety as assessed by monitoring the frequency, duration, and severity of AEs. Secondary endpoints were efficacy endpoints, including ORR, DCR, and progression-free survival (PFS).
(§6) Baseline data are presented descriptively. ORR is determined by the proportion of patients who achieve a confirmed complete response (CR) or partial response (PR) as the best overall response, and is presented with CIs. PFS and overall survival (OS) curves are generated using the Kaplan–Meier method. The incidence of AEs and serious AEs (SAEs) are reported as numbers and percentages.

[3] = system: malignant B cells and primary tumor cell lines; conditions: preclinical data, no reference given; cited from earlier work
[4] = system: patients with advanced solid tumors; conditions: 80 mg/day oral;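 also: phase Ib open-label single-arm trial, once-daily dosing in 28-day cycles, adverse events graded by NCI CTCAE v5.0, recorded until at least 30 days post last dose, incidence as patient counts and percentages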
Description: as §1, §2, §3, §4, §5, §6

SMILES: COc1ncc(-c2nc(N3CCOCC3)nc3c(CN4CCC(C(C)(C)O)CC4)cc(F)cc23)cc1NS(C)(=O)=O [linperlisib]
- Objective response rate (ORR) ([1]; 20 to 200 mg, 16/25, 95% CI 45.2–82.8): 64%
- Disease control rate (DCR) ([1]; 20 to 200 mg, 18/25, 95% CI 54.4–89.6): 72%
- Dose-limiting toxicities ([1]; highest 200 mg/day dose): no dose-limiting toxicities were observed
- DCR in patients with thymic carcinoma [2]: 50%
- DCR, patients with less than three prior lines of therapy [2]: 46.3%
- Progressive disease as best response ([2]; 94 patients): Thirty-nine
- Stable disease ([2]; 94 patients): 34 patients
- Median progression-free survival (PFS) ([2]; 94 patients, 95% CI 1.79–1.88): 1.85 months
- Median overall survival (OS) ([2]; 94 patients, median follow-up 4.2 months): not reached
- Complete response (CR) rate ([2]; 94 patients, one thymoma patient): 1.1%
- Objective response rate (ORR) ([2]; all 94 patients, 95% CI 0.0–5.8): 1.1%
- Disease control rate (DCR) ([2]; all 94 patients, 95% CI 27.5–47.8): 37.2%
- DCR, anal cancer ([2]; n = 1): 1 (100.0) n (%)
- DCR, endometrial cancer ([2]; n = 1): 0 (0.0) n (%)
- DCR, esophageal cancer ([2]; n = 1): 0 (0.0) n (%)
- DCR, lung neuroendocrine carcinoma ([2]; n = 1): 1 (100.0) n (%)
- DCR, lung squamous cell carcinoma ([2]; n = 1): 0 (0.0) n (%)
- DCR, oral cavity cancer ([2]; n = 1): 1 (100.0) n (%)
- DCR, ovarian cancer ([2]; n = 1): 1 (100.0) n (%)
- DCR, pancreatic cancer ([2]; n = 1): 1 (100.0) n (%)
- DCR, parotid carcinoma ([2]; n = 1): 0 (0.0) n (%)
- DCR, thymoma ([2]; n = 1): 1 (100.0) n (%)
- ORR, anal cancer ([2]; n = 1): 0 (0.0) n (%)
- ORR, endometrial cancer ([2]; n = 1): 0 (0.0) n (%)
- ORR, esophageal cancer ([2]; n = 1): 0 (0.0) n (%)
- ORR, lung neuroendocrine carcinoma ([2]; n = 1): 0 (0.0) n (%)
- ORR, lung squamous cell carcinoma ([2]; n = 1): 0 (0.0) n (%)
- ORR, oral cavity cancer ([2]; n = 1): 0 (0.0) n (%)
- ORR, ovarian cancer ([2]; n = 1): 0 (0.0) n (%)
- ORR, pancreatic cancer ([2]; n = 1): 0 (0.0) n (%)
- ORR, parotid carcinoma ([2]; n = 1): 0 (0.0) n (%)
- ORR, thymoma ([2]; n = 1): 1 (100.0) n (%)
- DCR, carcinoma of renal pelvis ([2]; n = 2): 1 (50.0) n (%)
- DCR, cholangiocarcinoma ([2]; n = 2): 0 (0.0) n (%)
- DCR, hepatocellular carcinoma ([2]; n = 2): 0 (0.0) n (%)
- ORR, carcinoma of renal pelvis ([2]; n = 2): 0 (0.0) n (%)
- ORR, cholangiocarcinoma ([2]; n = 2): 0 (0.0) n (%)
- ORR, hepatocellular carcinoma ([2]; n = 2): 0 (0.0) n (%)
- DCR, gallbladder cancer ([2]; n = 3): 2 (66.7) n (%)
- DCR, nasopharyngeal carcinoma ([2]; n = 3): 2 (66.7) n (%)
- ORR, gallbladder cancer ([2]; n = 3): 0 (0.0) n (%)
- ORR, nasopharyngeal carcinoma ([2]; n = 3): 0 (0.0) n (%)
- DCR, gastric cancer ([2]; n = 4): 1 (25.0) n (%)
- ORR, gastric cancer ([2]; n = 4): 0 (0.0) n (%)
- DCR, renal cell carcinoma ([2]; n = 5): 2 (40.0) n (%)
- ORR, renal cell carcinoma ([2]; n = 5): 0 (0.0) n (%)
- DCR, lung adenocarcinoma ([2]; n = 6): 3 (50.0) n (%)
- ORR, lung adenocarcinoma ([2]; n = 6): 0 (0.0) n (%)
- DCR, breast cancer ([2]; n = 8): 1 (12.5) n (%)
- ORR, breast cancer ([2]; n = 8): 0 (0.0) n (%)
- DCR, sarcoma ([2]; n = 9): 3 (33.3) n (%)
- ORR, sarcoma ([2]; n = 9): 0 (0.0) n (%)
- DCR, colon cancer ([2]; n = 11): 3 (27.3) n (%)
- ORR, colon cancer ([2]; n = 11): 0 (0.0) n (%)
- DCR, rectal cancer ([2]; n = 13): 3 (23.1) n (%)
- ORR, rectal cancer ([2]; n = 13): 0 (0.0) n (%)
- DCR, thymic carcinoma ([2]; n = 16): 8 (50.0) n (%)
- ORR, thymic carcinoma ([2]; n = 16): 0 (0.0) n (%)
- DCR, lung and mediastinal tumors, total ([2]; n = 25): 13 (52.0) n (%)
- ORR, lung and mediastinal tumors, total ([2]; n = 25): 1 (4.0) n (%)
- DCR, other types of tumor, total ([2]; n = 31): 11 (35.5) n (%)
- ORR, other types of tumor, total ([2]; n = 31): 0 (0.0) n (%)
- DCR, gastrointestinal tumors, total ([2]; n = 38): 11 (28.9) n (%)
- ORR, gastrointestinal tumors, total ([2]; n = 38): 0 (0.0) n (%)
- Shrinkage of target lesions ([2]; thymoma, gallbladder cancer, anal canal squamous cell carcinoma, renal cell carcinoma, renal pelvis cancer): more than 20%
- Target lesion change in patients with HCC ([2]; two patients with HCC): one of them had shrinkage of target lesions
- Apoptosis and proliferation [3]: induce apoptosis and inhibit the proliferation
- Incidence of hyperglycemia related to linperlisib, ≥ grade 3 [4]: 0%
- Grade ≥ 3 TEAE anemia ([4]; 94 patients): 3.2%
- Grade ≥ 3 TEAE diarrhea ([4]; 94 patients): 4.3%
- Grade ≥ 3 TEAE increased ALT ([4]; 94 patients): 3.2%
- Grade ≥ 3 TEAE increased AST ([4]; 94 patients): 3.2%
- Grade ≥ 3 TEAE increased blood alkaline phosphatase ([4]; 94 patients): 3.2%
- Grade ≥ 3 TEAE neutropenia ([4]; 94 patients): 3.2%
- Patients who suspended linperlisib due to TRAEs ([4]; 94 patients): 19.1%
- Patients who terminated linperlisib due to vomiting, esophagitis, gastritis, or drug eruption ([4]; 94 patients): 2.1%
- Patients who withdrew from the trial because of TRAEs ([4]; 94 patients): 5.3%
- Patients with SAEs related to linperlisib ([4]; 94 patients): 10.6%
- Patients with TEAEs of grade 3 or greater ([4]; 94 patients): 45.7%
- Patients with TRAEs of grade 3 or greater ([4]; 94 patients): 28.7%
- Patients with at least one TEAE ([4]; 94 patients): 97.9%
- Patients with at least one treatment-related AE (TRAE) ([4]; 94 patients): 89.4%
